Test system: Energy system protein genes
Test: DNA chip mRNA expression in yeast, energy system protein genes (Table 4)
Format: cell-based, Saccharomyces cerevisiae S288C
How it was run: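 Expression change after 2 h toxicant exposure (growth-inhibiting, sub-lethal) of log-phase S. cerevisiae S288C at 25° C. Oligo-dT-purified mRNA was labeled with Cy3-dUTP or Cy5-dUTP and hybridized >12 h at 65° C. to a genome-wide chip; ratio of scanned fluorescence to control.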

## C=CC=O [(14), acrolein]
Yeast gene YAL060W
  The level of expressed mRNA in the presence of chemical substance/The level of expressed mRNA in the absence of chemical substance: 0.9
Yeast gene YBL058W, cells incubated two hours with the chemical substance
  The level of expressed mRNA in the presence of chemical substance/The level of expressed mRNA in the absence of chemical substance: 1.3
Yeast gene YBL099W, cells incubated two hours with the chemical substance
  The level of expressed mRNA in the presence of chemical substance/The level of expressed mRNA in the absence of chemical substance: 0.6
Yeast gene YBR001C, cells incubated two hours with the chemical substance
  The level of expressed mRNA in the presence of chemical substance/The level of expressed mRNA in the absence of chemical substance: 1.2
Yeast gene YBR185C, cells incubated two hours with the chemical substance
  The level of expressed mRNA in the presence of chemical substance/The level of expressed mRNA in the absence of chemical substance: 1.7
Yeast gene YBR221C, cells incubated two hours with the chemical substance
  The level of expressed mRNA in the presence of chemical substance/The level of expressed mRNA in the absence of chemical substance: 0.8
Yeast gene YBR299W
  The level of expressed mRNA in the presence of chemical substance/The level of expressed mRNA in the absence of chemical substance: 1.4
Yeast gene YCL040W
  The level of expressed mRNA in the presence of chemical substance/The level of expressed mRNA in the absence of chemical substance: 0.7
Yeast gene YCR012W
  The level of expressed mRNA in the presence of chemical substance/The level of expressed mRNA in the absence of chemical substance: 0.9
Yeast gene YCR046C, cells incubated two hours with the chemical substance
  The level of expressed mRNA in the presence of chemical substance/The level of expressed mRNA in the absence of chemical substance: 1.3
Yeast gene YCR105W, cells incubated two hours with the chemical substance
  The level of expressed mRNA in the presence of chemical substance/The level of expressed mRNA in the absence of chemical substance: 1.9
Yeast gene YDL021W
  The level of expressed mRNA in the presence of chemical substance/The level of expressed mRNA in the absence of chemical substance: 3.7
Yeast gene YDL067C, cells incubated two hours with the chemical substance
  The level of expressed mRNA in the presence of chemical substance/The level of expressed mRNA in the absence of chemical substance: 1.4
Yeast gene YDL078C, cells incubated two hours with the chemical substance
  The level of expressed mRNA in the presence of chemical substance/The level of expressed mRNA in the absence of chemical substance: 0.8
Yeast gene YDL107W, cells incubated two hours with the chemical substance
  The level of expressed mRNA in the presence of chemical substance/The level of expressed mRNA in the absence of chemical substance: 1.5
Yeast gene YDL174C
  The level of expressed mRNA in the presence of chemical substance/The level of expressed mRNA in the absence of chemical substance: 1.1
Yeast gene YDL181W, cells incubated two hours with the chemical substance
  The level of expressed mRNA in the presence of chemical substance/The level of expressed mRNA in the absence of chemical substance: 1.1
Yeast gene YDR001C
  The level of expressed mRNA in the presence of chemical substance/The level of expressed mRNA in the absence of chemical substance: 1.0
Yeast gene YDR050C, cells incubated two hours with the chemical substance
  The level of expressed mRNA in the presence of chemical substance/The level of expressed mRNA in the absence of chemical substance: 1.2
Yeast gene YDR079W, cells incubated two hours with the chemical substance
  The level of expressed mRNA in the presence of chemical substance/The level of expressed mRNA in the absence of chemical substance: 1.5
Yeast gene YDR178W, cells incubated two hours with the chemical substance
  The level of expressed mRNA in the presence of chemical substance/The level of expressed mRNA in the absence of chemical substance: 1.5
Yeast gene YDR231C
  The level of expressed mRNA in the presence of chemical substance/The level of expressed mRNA in the absence of chemical substance: 1.5
Yeast gene YDR298C, cells incubated two hours with the chemical substance
  The level of expressed mRNA in the presence of chemical substance/The level of expressed mRNA in the absence of chemical substance: 1.5
Yeast gene YDR377W, cells incubated two hours with the chemical substance
  The level of expressed mRNA in the presence of chemical substance/The level of expressed mRNA in the absence of chemical substance: 1.4
Yeast gene YDR529C, cells incubated two hours with the chemical substance
  The level of expressed mRNA in the presence of chemical substance/The level of expressed mRNA in the absence of chemical substance: 1.5
Yeast gene YEL024W, cells incubated two hours with the chemical substance
  The level of expressed mRNA in the presence of chemical substance/The level of expressed mRNA in the absence of chemical substance: 1.1
Yeast gene YEL039C, cells incubated two hours with the chemical substance
  The level of expressed mRNA in the presence of chemical substance/The level of expressed mRNA in the absence of chemical substance: 1.4
Yeast gene YER178W
  The level of expressed mRNA in the presence of chemical substance/The level of expressed mRNA in the absence of chemical substance: 0.9
Yeast gene YFL057C
  The level of expressed mRNA in the presence of chemical substance/The level of expressed mRNA in the absence of chemical substance: 23.4
Yeast gene YFR053C
  The level of expressed mRNA in the presence of chemical substance/The level of expressed mRNA in the absence of chemical substance: 0.6
Yeast gene YGL018C, cells incubated two hours with the chemical substance
  The level of expressed mRNA in the presence of chemical substance/The level of expressed mRNA in the absence of chemical substance: 1.2
Yeast gene YGL062W
  The level of expressed mRNA in the presence of chemical substance/The level of expressed mRNA in the absence of chemical substance: 1.2
Yeast gene YGL187C, cells incubated two hours with the chemical substance
  The level of expressed mRNA in the presence of chemical substance/The level of expressed mRNA in the absence of chemical substance: 0.9
Yeast gene YGL191W, cells incubated two hours with the chemical substance
  The level of expressed mRNA in the presence of chemical substance/The level of expressed mRNA in the absence of chemical substance: 1.6
Yeast gene YGL205W, cells incubated two hours with the chemical substance
  The level of expressed mRNA in the presence of chemical substance/The level of expressed mRNA in the absence of chemical substance: 1.0
Yeast gene YGL256W, cells incubated two hours with the chemical substance
  The level of expressed mRNA in the presence of chemical substance/The level of expressed mRNA in the absence of chemical substance: 0.9
Yeast gene YGR043C
  The level of expressed mRNA in the presence of chemical substance/The level of expressed mRNA in the absence of chemical substance: 4.1
Yeast gene YGR062C, cells incubated two hours with the chemical substance, 25° C., YPD medium
  The level of expressed mRNA in the presence of chemical substance/The level of expressed mRNA in the absence of chemical substance: 1.2
Yeast gene YGR087C, cells incubated two hours with the chemical substance
  The level of expressed mRNA in the presence of chemical substance/The level of expressed mRNA in the absence of chemical substance: 0.7
Yeast gene YGR174C, cells incubated two hours with the chemical substance
  The level of expressed mRNA in the presence of chemical substance/The level of expressed mRNA in the absence of chemical substance: 1.6
Yeast gene YGR192C
  The level of expressed mRNA in the presence of chemical substance/The level of expressed mRNA in the absence of chemical substance: 1.0
Yeast gene YGR244C
  The level of expressed mRNA in the presence of chemical substance/The level of expressed mRNA in the absence of chemical substance: 1.2
Yeast gene YGR254W
  The level of expressed mRNA in the presence of chemical substance/The level of expressed mRNA in the absence of chemical substance: 0.6
Yeast gene YHR179W
  The level of expressed mRNA in the presence of chemical substance/The level of expressed mRNA in the absence of chemical substance: 5.8
Yeast gene YIL160C
  The level of expressed mRNA in the presence of chemical substance/The level of expressed mRNA in the absence of chemical substance: 1.5
Yeast gene YIR031C, cells incubated two hours with the chemical substance
  The level of expressed mRNA in the presence of chemical substance/The level of expressed mRNA in the absence of chemical substance: 1.2
Yeast gene YJL052W
  The level of expressed mRNA in the presence of chemical substance/The level of expressed mRNA in the absence of chemical substance: 1.3
Yeast gene YJL121C, cells incubated two hours with the chemical substance
  The level of expressed mRNA in the presence of chemical substance/The level of expressed mRNA in the absence of chemical substance: 0.9
Yeast gene YJL166W, cells incubated two hours with the chemical substance
  The level of expressed mRNA in the presence of chemical substance/The level of expressed mRNA in the absence of chemical substance: 1.9
Yeast gene YJL216C, cells incubated two hours with the chemical substance
  The level of expressed mRNA in the presence of chemical substance/The level of expressed mRNA in the absence of chemical substance: 1.1
Yeast gene YJR009C
  The level of expressed mRNA in the presence of chemical substance/The level of expressed mRNA in the absence of chemical substance: 1.0
